Data on five compounds can be found in ChEMBL document CHEMBL5380844, “Discovery of a Novel, Potent, Orally Active, and Safe Inhibitor Targeting Human Mitochondrial RNA Polymerase” (J Med Chem, 2023).

Converted amounts (≈) assume the structure as drawn. The source made the active and inactive calls. The rule behind the calls is not given here.

What is called IC50 is the point on the concentration scale where inhibition reaches its midpoint. A word on the solubility: it is the concentration that dissolves in the medium under given conditions. As usually defined, the inhibition is the share of the control response that was lost under treatment. For orientation: Papp A→B means how fast a substance crosses the layer from the apical side. What is called AUC(0-t) is exposure summed from dosing to a finite time, without extrapolation to infinity. In general, clearance refers to a measure of how efficiently the substance is removed, as volume per time. As a reminder, the AUC(0-inf) is the area under the concentration-time curve extrapolated to infinity. As usually defined, the MRT is the average time that molecules of a dose stay in the body. A word on the bioavailability: it is the share of a dose that reaches the circulation, judged against a reference dose that is usually intravenous. The half-life is the time in which the quantity being followed falls by half. The Cmax is the maximum level reached in the sampled fluid or tissue.

One series deals with A549. The series is described as follows: Antiproliferative activity against human A549 cells incubated for 168 hrs by SRB method. Format: functional, cell-based. As to conditions: A549, 168 h. (In SRB staining, fixed cells bind dye roughly in proportion to their protein.)
A short description of series [1]: Toxicity in Balb/c mouse assessed as effect on lung at 100 mg/kg by H and E staining based analysis. As to conditions: in vivo. Format: organism-based.
Series [2] is described as follows: Solubility in PBS at pH 7.4. Format: physicochemical.
A short description of series [3]: Toxicity in Balb/c mouse assessed as effect on liver at 100 mg/kg by H and E staining based analysis. As to conditions: in vivo. Format: organism-based.
Another series concerns NCI-H1975. Nature of the series: Antiproliferative activity against human NCI-H1975 cells incubated for 168 hrs by SRB method. As to conditions: NCI-H1975, 168 h. Format: functional, cell-based.
The subject of series [4] is A2780. The series is described as follows: Antitumor activity against human A2780 cells xenografted in BALB/c nude mouse model assessed as reduction in tumor weight at 100 mg/kg, po administered daily and measured after 27 days relative to control. Format: functional. As to conditions: time 27 day. Further details: scale not given: the % may be the effect or the level left. On the technique in general: A xenograft is tissue or cells of one species grown in another, often human tumour cells in immunodeficient mice.

Series [5] in a line: Antiproliferative activity against human PBMC cells incubated for 168 hrs by SRB method. Format: functional, cell-based.
A further series deals with IMR-90. Nature of the series: Antiproliferative activity against human IMR-90 cells incubated for 168 hrs by SRB method. As to conditions: IMR-90, 168 h. Format: functional, cell-based.
Series [6] is described as follows: Inhibition of ND1 transcript level in human A2780 cells at 500 nM measured after 12 hrs by RT-qPCR analysis relative to control. Format: functional. On the technique in general: Real-time PCR tracks product formation cycle by cycle.
Another series has as its system MDA-MB-468. Nature of the series: Antiproliferative activity against human MDA-MB-468 cells incubated for 168 hrs by SRB method. Format: functional, cell-based. As to conditions: MDA-MB-468, 168 h.
Series [7] can be described thus: Acute toxicity in Balb/c mouse assessed as effect on kidney 100 mg/kg measured after 27 days by H and E staining based analysis. Format: organism-based. As to conditions: in vivo, 648 h, time 27 day.
A further series concerns HepG2. Nature of the series: Antiproliferative activity against human HepG2 cells incubated for 168 hrs by SRB method. Format: functional, cell-based. As to conditions: HepG2, 168 h.
Series [8] is described as follows: Toxicity in Balb/c mouse assessed as effect on heart at 100 mg/kg by H and E staining based analysis. Format: organism-based. As to conditions: in vivo.
Another series relates to NCI-H3122. Nature of the series: Antiproliferative activity against human NCI-H3122 cells incubated for 168 hrs by SRB method. Format: functional, cell-based. As to conditions: NCI-H3122, 168 h.
Series [9] is described as follows: Acute toxicity in Balb/c mouse assessed as effect on liver 100 mg/kg measured after 27 days by H and E staining based analysis. Format: organism-based. As to conditions: in vivo, 648 h, time 27 day.
The subject of series [10] is A2780. Nature of the series: Antitumor activity against human A2780 cells xenografted in BALB/c nude mouse model assessed as reduction in ND1 expression in liver at 100 mg/kg, po administered daily. Format: functional, organism-based.
The next series concerns MIA PaCa-2. Nature of the series: Antiproliferative activity against human MIA PaCa-2 cells incubated for 168 hrs by SRB method. Format: functional, cell-based. As to conditions: MIA PaCa-2, 168 h.
For the next series, the system named is DLD-1. The series is described as follows: Antiproliferative activity against human DLD-1 cells incubated for 168 hrs by SRB method. Format: functional, cell-based. As to conditions: DLD-1, 168 h.
Series [11] concerns A2780. Nature of the series: Antiproliferative activity against human A2780 cells incubated for 168 hrs by SRB method. As to conditions: A2780, 168 h. Format: functional, cell-based.
In a further series the test system is MDA-MB-231. The series is described as follows: Antiproliferative activity against human MDA-MB-231 cells incubated for 168 hrs by SRB method. As to conditions: MDA-MB-231, 168 h. Format: functional, cell-based.
In series [12] the test system is A2780. The series is described as follows: Antitumor activity against human A2780 cells xenografted in BALB/c nude mouse model assessed as induction of tumor shrinkage 100 mg/kg by H and E staining based immunohistochemical analysis. Format: functional, organism-based.
Series [13] has as its system A2780. The series is described as follows: Antitumor activity against human A2780 cells xenografted in BALB/c nude mouse model assessed as reduction in mitochondrial DNA transcript level at 100 mg/kg, po administered daily. Format: functional, organism-based.
Series [14] in a line: Toxicity in Balb/c mouse assessed as effect on spleen at 100 mg/kg by H and E staining based analysis. As to conditions: in vivo. Format: organism-based.
The test system of another series is HeLa. The series is described as follows: Antiproliferative activity against human HeLa cells incubated for 168 hrs by SRB method. Format: functional, cell-based.
Series [15] can be described thus: Toxicity in Balb/c mouse assessed as effect on kidney at 100 mg/kg by H and E staining based analysis. As to conditions: in vivo. Format: organism-based.
Series [16] can be described thus: Apparent permeability across apical to basolateral side in human Caco-2 cells at 3 uM incubated for 2 hrs by LC-MS/MS analysis. Format: ADME, cell-based.
Series [17] in a line: AUC (0 to t) in ICR mouse at 10 mg/kg, po measured upto 24 hrs by LC-MS/MS analysis. Further details: dose 10 mg/kg, time < 24 hrs, route po. Format: ADME, organism-based. As to conditions: in vivo.
Series [18] in a line: Clearance in ICR mouse at 1 mg/kg, iv measured upto 24 hrs by LC-MS/MS analysis. Format: ADME, organism-based. As to conditions: in vivo.
The nature of series [19]: AUC (0 to infinity) in ICR mouse at 1 mg/kg, iv measured upto 24 hrs by LC-MS/MS analysis. Format: ADME, organism-based. Further details: time < 24 hrs, dose 1 mg/kg, route iv. As to conditions: in vivo.
Series [20] in a line: MRT in ICR mouse at 1 mg/kg, iv measured upto 24 hrs by LC-MS/MS analysis. Format: ADME, organism-based. As to conditions: in vivo.
Series [21] in a line: Oral bioavailability in ICR mouse at 10 mg/kg measured upto 24 hrs by LC-MS/MS analysis. Format: ADME, organism-based. As to conditions: in vivo.
A short description of series [22]: Half life in ICR mouse at 1 mg/kg, iv measured upto 24 hrs by LC-MS/MS analysis. Format: ADME, organism-based. As to conditions: in vivo.
Series [23] is described as follows: Cmax in ICR mouse at 1 mg/kg, iv measured upto 24 hrs by LC-MS/MS analysis. Format: ADME, organism-based. Further details: time < 24 hrs, dose 1 mg/kg, route iv. As to conditions: in vivo.
Series [24] can be described thus: Cmax in ICR mouse at 10 mg/kg, po measured upto 24 hrs by LC-MS/MS analysis. Format: ADME, organism-based. Further details: time < 24 hrs, dose 10 mg/kg, route po. As to conditions: in vivo.
Series [25] is described as follows: Volume of distribution at steady state in ICR mouse at 1 mg/kg, iv measured upto 24 hrs by LC-MS/MS analysis. Format: ADME, organism-based. As to conditions: in vivo, read-out: Vdss.
Series [26] is described as follows: Half life in ICR mouse at 10 mg/kg, po measured upto 24 hrs by LC-MS/MS analysis. Format: ADME, organism-based. As to conditions: in vivo.
Series [27] in a line: AUC (0 to t) in ICR mouse at 1 mg/kg, iv measured upto 24 hrs by LC-MS/MS analysis. Format: ADME, organism-based. Further details: time < 24 hrs, dose 1 mg/kg, route iv. As to conditions: in vivo.

Take `C[C@@H](Oc1ccc2c(-c3ccc(F)cc3Cl)cc(=O)oc2c1)C(=O)N1CCC[C@H](C(=O)O)C1`: the IC50 in the series with A549 was 881 nM; in the series with NCI-H1975, 221 nM; in series [5] it was above 50000 nM; with IMR-90, above 50000 nM; in the series with MDA-MB-468, 189 nM; with HepG2, 168 nM. Also, the IC50 is above 10000 nM in the series with NCI-H3122; 152 nM in the series with MIA PaCa-2; 142 nM in the series on DLD-1; 138 nM in the series on A2780 [11]; above 10000 nM in the series on MDA-MB-231; 1050 nM in the series on HeLa. In addition, the Activity result is “Non-Toxic” in [1]; “Non-Toxic” in [3]; 56.75% with A2780 [4]; “Non-Toxic” in series [7]; “Non-Toxic” in series [8]; “Non-Toxic” in series [9]. Moreover, the Activity entry in [14] and in series [15] was “Non-Toxic” each time. Also, the solubility in series [2] was 6.49 µg/mL (≈ 13.7 µM). At 0.5 µM the inhibition in series [6] was 25%. Besides, the outcome in the series with A2780 [10], in the series on A2780 [12] and in the series on A2780 [13] was Active.

In the case of `Nc1cc(N2CCCCC2)nc(N)[n+]1[O-]` [MINOXIDIL], the Papp A→B at 2 h, 3 µM in series [16] was 6.79 ×10⁻⁶ cm/s.

Consider `C[C@@H](Oc1ccc2c(-c3ccc(F)cc3Cl)cc(=O)oc2c1)C(=O)N1CCN(C)CC1`, for which, in series [6], the inhibition at 0.5 µM was 28%. The compound also came in with an IC50 in the series with A2780 [11] of 172 nM.

In turn, `C[C@@H](Oc1ccc2c(-c3cccc4ccccc34)cc(=O)oc2c1)C(=O)N1CC2CCC(C1)N2` yielded an inhibition at 0.5 µM in [6] of 67%. For the same compound, the IC50 with A2780 [11] was determined as 562 nM.

On to `Cc1ccc(-c2cc(=O)oc3cc(O[C@H](C)C(=O)N4CC5CCC(C4)N5)ccc23)c(C)c1`, for which the values for the AUC(0-t) at 24 h in series [17] and in [27] were 403 ng·h/mL and 294 ng·h/mL, respectively. Further, the clearance in series [18] came out at 47.6 mL/min/kg. Moreover, at 0.5 µM the inhibition in series [6] was 7%. The AUC(0-inf) in [19] came to 351 ng·h/mL. Further, the MRT in [20] was 2.05 h. The bioavailability in series [21] is 13.7%. Moreover, the values for the half-life in series [22] and in series [26] were 1.61 h and 2.67 h, respectively. Besides, the Cmax is 234 ng/mL in [23] and 66.6 ng/mL in series [24]. Besides, the Vd in [25] was found to be 5.84 L/kg. The compound further returned an IC50 with A2780 [11] of 27 nM.
